Laboratory results as given in PubChem BioAssay (NCI).
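Protocol summary: plate cells (96-well), add compound at 5 concentrations, incubate 48 h, interpolate endpoints linearly. GI50 is the concentration that inhibits growth by half. TGI: total growth inhibition.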

Experiments:
Test in all cases: growth of human tumour cells (NCI), 48 h
[1] = system: TK-10 renal
[2] = system: OVCAR-5 ovarian
[3] = system: HCT-15 colon
[4] = system: PC-3 prostate
[5] = system: NCI-H460 lung
[6] = system: KM12 colon
[7] = system: MOLT-4 leukemia
[8] = system: OVCAR-4 ovarian
[9] = system: OVCAR-8 ovarian
[10] = system: SF-539 CNS
[11] = system: HCC-2998 colon
[12] = system: NCI-H23 lung
[13] = system: M14 melanoma
[14] = system: MDA-MB-468 breast
[15] = system: HT29 colon
[16] = system: SK-MEL-5 melanoma
[17] = system: LOX IMVI melanoma
[18] = system: RPMI-8226 leukemia
[19] = system: OVCAR-3 ovarian
[20] = system: SF-295 CNS
[21] = system: SNB-19 CNS
[22] = system: UO-31 renal
[23] = system: SW-620 colon
[24] = system: IGROV1 ovarian
[25] = system: CCRF-CEM leukemia
[26] = system: NCI/ADR-RES ovarian
[27] = system: A498 renal
[28] = system: UACC-62 melanoma
[29] = system: NCI-H226 lung
[30] = system: COLO 205 colon
[31] = system: T-47D breast
[32] = system: BT-549 breast
[33] = system: HOP-92 NSCLC
[34] = system: HS 578T breast
[35] = system: ACHN renal
[36] = system: EKVX NSCLC
[37] = system: NCI-H522 lung
[38] = system: 786-0 renal
[39] = system: HOP-62 NSCLC
[40] = system: HL-60(TB) leukemia
[41] = system: SN12C renal
[42] = system: CAKI-1 renal
[43] = system: MCF7 breast
[44] = system: SF-268 CNS
[45] = system: UACC-257 melanoma
[46] = system: HCT-116 colon
[47] = system: A549 NSCLC
[48] = system: MDA-MB-435
[49] = system: SK-MEL-2 melanoma
[50] = system: MALME-3M melanoma
[51] = system: SK-OV-3 ovarian
[52] = system: U251 CNS
[53] = system: SK-MEL-28 melanoma
[54] = system: SNB-75 CNS
[55] = system: K-562 leukemia
[56] = system: RXF 393 renal
[57] = system: MDA-MB-231 breast
[58] = system: DU-145 prostate

Cn1cc(-c2cc(N)n3nc(-c4cn(C)c5ncccc45)cc3n2)c2cccnc21
GI50 [1]: 14.3 µM | TGI [1]: 27.9 µM | GI50 [2]: 15.1 µM | TGI [2]: 28.4 µM | GI50 [3]: 16.4 µM | TGI [3]: 31.2 µM | GI50 [4]: 15.2 µM | TGI [4]: 34.9 µM | GI50 [5]: 15.9 µM | TGI [5]: 32.6 µM | GI50 [6]: 16.6 µM | TGI [6]: 32.3 µM | GI50 [7]: 17.7 µM | TGI [7]: 51.6 µM | GI50 [8]: 17.2 µM | TGI [8]: 36.2 µM | GI50 [9]: 18.7 µM | TGI [9]: 46 µM | GI50 [10]: 16.4 µM | TGI [10]: 32.1 µM | GI50 [11]: 15.1 µM | TGI [11]: 28.3 µM | GI50 [12]: 17.4 µM | TGI [12]: 32 µM | GI50 [13]: 16 µM | TGI [13]: 30.9 µM | GI50 [14]: 13.7 µM | TGI [14]: 26.7 µM | GI50 [15]: 14.9 µM | TGI [15]: 31.5 µM | GI50 [16]: 14.4 µM | TGI [16]: 28.2 µM | GI50 [17]: 18.2 µM | TGI [17]: 39.7 µM | GI50 [18]: 12.9 µM | TGI [18]: 38.4 µM | GI50 [19]: 15.6 µM | TGI [19]: 30.9 µM | GI50 [20]: 17.5 µM | TGI [20]: 38.8 µM | GI50 [21]: 18.6 µM | TGI [21]: 38.4 µM | GI50 [22]: 15.2 µM | TGI [22]: 32.1 µM | GI50 [23]: 13.3 µM | TGI [23]: 29.7 µM | GI50 [24]: 17.8 µM | TGI [24]: 37.6 µM | GI50 [25]: 5.88 µM | TGI [25]: 94.5 µM | GI50 [26]: 30.9 µM | TGI [26]: > 100 µM | GI50 [27]: > 100 µM | TGI [27]: > 100 µM | GI50 [28]: 29 µM | TGI [28]: > 100 µM | GI50 [29]: 17.8 µM | TGI [29]: 42.9 µM | GI50 [30]: 10.3 µM | TGI [30]: 23.9 µM | GI50 [31]: 42.7 µM | TGI [31]: > 100 µM | GI50 [32]: 17.4 µM | TGI [32]: 39.1 µM | GI50 [33]: 11.1 µM | TGI [33]: 29.1 µM | GI50 [34]: 18.7 µM | TGI [34]: 73.4 µM | GI50 [35]: 17.3 µM | TGI [35]: 33 µM | GI50 [36]: 15.2 µM | TGI [36]: 30.2 µM | GI50 [37]: 32.1 µM | TGI [37]: > 100 µM | GI50 [38]: 16.7 µM | TGI [38]: 32.2 µM | GI50 [39]: 18 µM | TGI [39]: 36.4 µM | GI50 [40]: 14.8 µM | TGI [40]: 37 µM | GI50 [41]: 15.2 µM | TGI [41]: 30.4 µM | GI50 [42]: 16.9 µM | TGI [42]: 35.6 µM | GI50 [43]: 18.7 µM | TGI [43]: 41.6 µM | GI50 [44]: > 100 µM | TGI [44]: > 100 µM | GI50 [45]: 29.2 µM | TGI [45]: > 100 µM | GI50 [46]: 16.8 µM | TGI [46]: 38.2 µM | GI50 [47]: 15.7 µM | TGI [47]: 42 µM | GI50 [48]: 29.4 µM | TGI [48]: > 100 µM | GI50 [49]: > 100 µM | TGI [49]: > 100 µM | GI50 [50]: 17.3 µM | TGI [50]: 36.4 µM | GI50 [51]: > 100 µM | TGI [51]: > 100 µM | GI50 [52]: 19.8 µM | TGI [52]: 46.4 µM | GI50 [53]: 16.4 µM | TGI [53]: 31.6 µM | GI50 [54]: 11.1 µM | TGI [54]: 30.6 µM | GI50 [55]: 6.6 µM | TGI [55]: 27 µM | GI50 [56]: 5.11 µM | TGI [56]: 21.9 µM | GI50 [57]: 13.7 µM | TGI [57]: 26.5 µM | GI50 [58]: 14.6 µM | TGI [58]: 28.5 µM
